Data published in patent publication US20220170940A1, “BIOMARKER WITH THERAPEUTIC IMPLICATIONS FOR PERITONEAL CARCINOMATOSIS” (SINGAPORE HEALTH SERVICES PTE LTD, priority 2019, published 2022).

What was measured:
[1] = test system: Colo-205 cells; test: In vitro drug treatment, CellTitreGlo proliferation of cell-free ascites-treated cells; type: cell-based, Human; details: 5% cell-free ascites of PPA, CAP, APA groups or FBS control, 72 hours
Procedure: A total of 5,000 cells/wells were seeded in 96-well plates and were grown for 24 hours in serum-free RPMI medium supplemented with 5% cell-free ascites or complete media, and then treated with various concentrations of TM5441 (PAI-1 inhibitor), Tiplaxtinin (PAI-1 inhibitor), Napabucasin (STAT3 inhibitor), BEZ235 (dual PI3K/mTOR inhibitor) and Mitomycin C (chemotherapeutic agent used in hyperthermic intraperitoneal chemotherapy (HIPEC)) for 72 hours. Cell proliferation was assessed using CellTitreGlo assay (Promega, Madison, US). These experiments were performed in triplicates and were repeated at least 3 times.

[2] = test system: IL6-JAK-STAT3 signalling pathway; test: Gene expression profiling (RNA microarray, GSEA) upon PAI-1 inhibition; type: cell-based, Human; details: Colo-205 cells, PPA cell-free ascites (PC085), 27.25 μM TM5441 vs DMSO, 24 hours
Procedure: To assess signalling pathways affected by PAI-1 inhibition, Colo-205 cells were treated with cell-free ascites representative of PAI-1 paracrine addicted (PPA) group, co-activators predominant (CAP) group or foetal bovine serum (FBS; control) in the presence of DMSO vehicle or 27.25 μM TM5441 for 24 hours. Total RNA was isolated using Qiagen Mini Kit (Qiagen, CA, USA), following the manufacturer's instructions. Gene expression profiling was performed using Affymetrix GeneChip Genome U133 Plus 2.0 microarray platform (Affymetrix, Santa Clara, Calif.) in accordance to manufacturer's protocols. Microarray data was uploaded into the free programming software R (R Foundation for Statistical Computing, Vienna, Austria) for processing and normalization. Gene Set Enrichment Analysis (GSEA) was used to assess enrichment of genes showing up- and down-regulation using GSEA graphical user interface (GUI) software (http://www.broadinstitute.org/gsea/).

[3] = test system: Colo-205 cells; test: In vivo PC cell line mouse model drug treatment (ascites groups); design: species or system BALB/c nude mice; details: PPA cell-free ascites (PC085)-treated mice; 1.75 mM TM5441 i.p. every 3 days for 21 days; n=5 mice/group
Procedure: To determine the efficacy of PAI-1 inhibition in different susceptibility ascites groups in vivo, 5×10^6 of Colo-205 cells were co-injected with cell-free ascites representative of PAI-1 paracrine addicted (PPA) group, co-activators predominant (CAP) group or foetal bovine serum (FBS) into abdominal cavity of 6- to 8-week-old BALB/c nude mice (female, n=5 mice/group) and treated with 1.75 mM TM5441 administered intraperitoneally. Ascites and drug treatment were performed by injecting 400 μL of 5% cell-free ascites or 10% foetal bovine serum (FBS) with TM5441 intraperitoneally every 3 days for a duration of 21 days. After 3 weeks, the mice were sacrificed and tumour burden was quantified based on a modified peritoneal carcinomatosis index (PCI) score and presented as total peritoneal carcinomatosis index (PCI) score. Total peritoneal carcinomatosis index (PCI) score was calculated based on the sum of score for each region and ranges from 0 to 39.

[4] = test system: phospho-STAT3 (Tyr705); test: p-STAT3 (Y705) ELISA of cell-free ascites-treated cancer cells with TM5441; type: cell-based, Human; details: cells exposed to PPA cell-free ascites (PC085, PC383) versus CAP (PC249) and APA (PC010)
Procedure: Concentrations of PAI-1 (DSE100), IL6 (D6050), IL10 (D1000B), CCL2 (DCP00), MMP9 (DMP900), ANGPT1 (DANG10), TGFB1 (DB100B), and CXCL10 (DIP100) in cell-free ascites were quantified using human Quantikine ELISA kits from R&D Systems. Concentrations of POSTN (DY3548B) and CD44 (DY7045-05) in cell-free ascites were quantified using human DuoSet ELISA kits from R&D Systems. VSIG4 (ELH-VSIG4-1) concentration in cell-free ascites was quantified using ELISA from RayBiotech. All samples were performed with 2 technical replicates according to the manufacturers' instructions. Total STAT3 and phospho-STAT3 (Tyr705) were detected with ELISA (7305C and 7300C, Cell Signalling Technology, Massachusetts, US). Proteins were isolated from cell lysates of Colo-205 and SNU-C1 that were treated with 5% cell-free ascites for 24 hours. In all experiments, 25 μg of protein was used for total STAT3 and p-STAT3(Y705) ELISA following the manufacturer's instructions.

[5] = test system: Colo-205 cells; test: In vivo PC cell line mouse model, drug concentration and delivery method (i.p. vs oral); design: species or system BALB/c nude mice; details: PPA cell-free ascites (PC085); i.p. every 3 days up to 21 days; n=4 mice/group
Procedure: To determine the optimal drug concentration and drug delivery method, a total of 16 female BALB/c nude mice with the age of 6-8 weeks old were selected for the experiment. Each mouse was injected with 5×10^6 of Colo-205 cells intraperitoneally. The mice were divided into 4 groups and given the following treatments: (i) 5% cell-free ascites with 1% DMSO, (ii) 5% cell-free ascites with 1 mM TM5441, (iii and iv) 5% cell-free ascites with 2 mM TM5441. Treatment was performed by injecting 400 μL of 5% cell-free ascites with DMSO vehicle/drug intraperitoneally (i-iii) and orally (iv) every 3 days, up to 21 days. After 3 weeks, the mice were sacrificed and tumour burden was quantified based on a modified peritoneal carcinomatosis index (PCI) score and presented as total peritoneal carcinomatosis index (PCI) score. Total peritoneal carcinomatosis index (PCI) score was calculated based on the sum of score for each region and ranges from 0 to 39.

[6] = test system: patient-derived ascites-dependent xenograft (PDADX) tumours; test: Patient-derived ascites-dependent xenografts (PDADXs) drug treatment; type: in vivo, BALB/c nude mice; details: 2 mM TM5441 i.p. every 3 days for 21 days
Procedure: Ascites collected from patients with peritoneal carcinomatosis were centrifuged at 2000 g for 10 minutes to concentrate the cellular components and to separate the fluid component. 1 mL of cell pellet was resuspended with 1 mL of ascitic fluid and 400 μL of the mixture was implanted intraperitoneally into 6-week-old BALB/c nude mice (n=5 mice) to generate patient-derived ascites-dependent xenograft (PDADX) passage 0 (P0). For subsequent passages, patient-derived ascites-dependent xenograft (PDADX) tumours were diced into small pieces using scalpel blades and passed through an 18-G syringe needle. Diced tumours were resuspended with matched patient's ascites at 1:1 ratio and implanted intraperitoneally into 6-week-old BALB/c nude mice (n=10 mice).
Matched patient's cell-free ascites and its cellular components were used to generate patient-derived ascites-dependent xenografts (PDADXs) to better recapitulate peritoneal carcinomatosis patients. PAI-1 paracrine addicted (PPA) patient-derived ascites-dependent xenograft (PDADX) tumours (100 mg) were implanted into 16 female BALB/c nude mice intraperitoneally and co-activators predominant (CAP) patient-derived ascites-dependent xenograft (PDADX) tumours (100 mg) were implanted into 16 female BALB/c nude mice intraperitoneally. […] Tumour burden was quantified by weighing all visible tumours after mice were sacrificed.
Briefly, co-activators predominant (CAP) patient-derived ascites-dependent xenograft (PDADX) tumours (100 mg) were implanted into 16 female BALB/c nude mice intraperitoneally. […] Tumour burden was quantified by weighing all visible tumours after mice were sacrificed.

SMILES: Cn1c(=O)n(-c2ccc(C(C)(C)C#N)cc2)c2c3cc(-c4cnc5ccccc5c4)ccc3ncc21 [BEZ235]
- Sensitivity of cell-free ascites-treated Colo-205 cells to inhibitor (dose-response, cell proliferation) [1]: ineffective

SMILES: CO[C@@]12[C@H](COC(N)=O)C3=C(C(=O)C(C)=C(N)C3=O)N1C[C@@H]1N[C@@H]12 [Mitomycin C]
- Sensitivity of cell-free ascites-treated Colo-205 cells to inhibitor (dose-response, cell proliferation) [1]: ineffective

SMILES: CC(=O)c1cc2c(o1)C(=O)c1ccccc1C2=O [Napabucasin]
- Sensitivity of cell-free ascites-treated Colo-205 cells to inhibitor (dose-response, cell proliferation) [1]: ineffective

SMILES: O=C(COCC(=O)Nc1ccc(Cl)cc1C(=O)[O-])Nc1cccc(-c2ccoc2)c1.[Na+] [TM5441, 5-Chloro-2-[[2-[2-[[3-(3-furanyl)phenyl]amino]-2-oxoethoxy]acetyl]amino]benzoic acid sodium salt]
- Sensitivity of cell-free ascites-treated Colo-205 cells to inhibitor (dose-response, cell proliferation) [1]: PAI-1 paracrine addicted (PPA) (n=18) being the most sensitive to PAI-1 inhibition, followed by co-activators predominant (CAP) (n=59) and alternative pathways activation (APA) (n=17)
- IL6-JAK-STAT3 signalling pathway regulation (GSEA) [2]: significantly down-regulated
- Tumour burden (modified PCI score) [3]: significant reduction in tumour burden
- Concentration needed to suppress STAT3 activation (p-STAT3 ELISA) [4]: required a lower concentration of TM5441 to supress STAT3 activation
- Formation of peritoneal tumours (modified PCI score), intraperitoneal instillation [5]: effectively inhibited
- Tumour burden (weight of all visible tumours), PC249 PDADX with PPA cell-free ascites (PC383) ([6]; CAP PDADX (PC249) exposed to PC383 PPA ascites): became susceptible to PAI-1 inhibition
- Tumour burden (weight of all visible tumours), PC249 PDADX with matched cell-free ascites ([6]; CAP PDADX (PC249), matched CAP ascites): no reduction in tumour burden compared to vehicle control
- Tumour burden (weight of all visible tumours), PC383 PDADX with matched cell-free ascites ([6]; PPA PDADX (PC383), matched PPA ascites, n=4 mice/group): significantly superior inhibition of tumour growth compared to vehicle control

SMILES: O=C(O)C(=O)c1cn(Cc2ccccc2)c2ccc(-c3ccc(OC(F)(F)F)cc3)cc12 [Tiplaxtinin, 2-(1-Benzyl-5-(4-(trifluoromethoxy)phenyl)-1H-indol-3-yl)oxoacetic acid]
- Sensitivity of cell-free ascites-treated Colo-205 cells to inhibitor (dose-response, cell proliferation) [1]: showed the same trend of differential response
